Where two headings read alike, the source gives them in different places.

The target of the test is recombinant GST-LRRK2 (wild-type) (Homo sapiens (Human), UniProt Q5S007). The test is described as follows: LRRK2 TR-FRET peptide assay (in vitro kinase activity), wild-type. In kind it is biochemical. In a few lines: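 Recombinant GST-LRRK2 wild-type pre-incubated with serially diluted compound in 1% DMSO for 15 min at room temperature, with kinase activity read by TR-FRET using a peptide substrate. IC50 derived from eight-point dose-response curves, with inhibition normalized to the plate's control and background wells.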
On the technique in general: In TR-FRET formats the signal depends on donor and acceptor labels being close together.

Where [1] appears, read: 100 μM ATP, 100 nM biotin-LRRKtide substrate, 10 nM kinase, 60 minutes at room temperature.

recombinant GST-LRRK2 (wild-type), sequence (Q5S007 whole entry): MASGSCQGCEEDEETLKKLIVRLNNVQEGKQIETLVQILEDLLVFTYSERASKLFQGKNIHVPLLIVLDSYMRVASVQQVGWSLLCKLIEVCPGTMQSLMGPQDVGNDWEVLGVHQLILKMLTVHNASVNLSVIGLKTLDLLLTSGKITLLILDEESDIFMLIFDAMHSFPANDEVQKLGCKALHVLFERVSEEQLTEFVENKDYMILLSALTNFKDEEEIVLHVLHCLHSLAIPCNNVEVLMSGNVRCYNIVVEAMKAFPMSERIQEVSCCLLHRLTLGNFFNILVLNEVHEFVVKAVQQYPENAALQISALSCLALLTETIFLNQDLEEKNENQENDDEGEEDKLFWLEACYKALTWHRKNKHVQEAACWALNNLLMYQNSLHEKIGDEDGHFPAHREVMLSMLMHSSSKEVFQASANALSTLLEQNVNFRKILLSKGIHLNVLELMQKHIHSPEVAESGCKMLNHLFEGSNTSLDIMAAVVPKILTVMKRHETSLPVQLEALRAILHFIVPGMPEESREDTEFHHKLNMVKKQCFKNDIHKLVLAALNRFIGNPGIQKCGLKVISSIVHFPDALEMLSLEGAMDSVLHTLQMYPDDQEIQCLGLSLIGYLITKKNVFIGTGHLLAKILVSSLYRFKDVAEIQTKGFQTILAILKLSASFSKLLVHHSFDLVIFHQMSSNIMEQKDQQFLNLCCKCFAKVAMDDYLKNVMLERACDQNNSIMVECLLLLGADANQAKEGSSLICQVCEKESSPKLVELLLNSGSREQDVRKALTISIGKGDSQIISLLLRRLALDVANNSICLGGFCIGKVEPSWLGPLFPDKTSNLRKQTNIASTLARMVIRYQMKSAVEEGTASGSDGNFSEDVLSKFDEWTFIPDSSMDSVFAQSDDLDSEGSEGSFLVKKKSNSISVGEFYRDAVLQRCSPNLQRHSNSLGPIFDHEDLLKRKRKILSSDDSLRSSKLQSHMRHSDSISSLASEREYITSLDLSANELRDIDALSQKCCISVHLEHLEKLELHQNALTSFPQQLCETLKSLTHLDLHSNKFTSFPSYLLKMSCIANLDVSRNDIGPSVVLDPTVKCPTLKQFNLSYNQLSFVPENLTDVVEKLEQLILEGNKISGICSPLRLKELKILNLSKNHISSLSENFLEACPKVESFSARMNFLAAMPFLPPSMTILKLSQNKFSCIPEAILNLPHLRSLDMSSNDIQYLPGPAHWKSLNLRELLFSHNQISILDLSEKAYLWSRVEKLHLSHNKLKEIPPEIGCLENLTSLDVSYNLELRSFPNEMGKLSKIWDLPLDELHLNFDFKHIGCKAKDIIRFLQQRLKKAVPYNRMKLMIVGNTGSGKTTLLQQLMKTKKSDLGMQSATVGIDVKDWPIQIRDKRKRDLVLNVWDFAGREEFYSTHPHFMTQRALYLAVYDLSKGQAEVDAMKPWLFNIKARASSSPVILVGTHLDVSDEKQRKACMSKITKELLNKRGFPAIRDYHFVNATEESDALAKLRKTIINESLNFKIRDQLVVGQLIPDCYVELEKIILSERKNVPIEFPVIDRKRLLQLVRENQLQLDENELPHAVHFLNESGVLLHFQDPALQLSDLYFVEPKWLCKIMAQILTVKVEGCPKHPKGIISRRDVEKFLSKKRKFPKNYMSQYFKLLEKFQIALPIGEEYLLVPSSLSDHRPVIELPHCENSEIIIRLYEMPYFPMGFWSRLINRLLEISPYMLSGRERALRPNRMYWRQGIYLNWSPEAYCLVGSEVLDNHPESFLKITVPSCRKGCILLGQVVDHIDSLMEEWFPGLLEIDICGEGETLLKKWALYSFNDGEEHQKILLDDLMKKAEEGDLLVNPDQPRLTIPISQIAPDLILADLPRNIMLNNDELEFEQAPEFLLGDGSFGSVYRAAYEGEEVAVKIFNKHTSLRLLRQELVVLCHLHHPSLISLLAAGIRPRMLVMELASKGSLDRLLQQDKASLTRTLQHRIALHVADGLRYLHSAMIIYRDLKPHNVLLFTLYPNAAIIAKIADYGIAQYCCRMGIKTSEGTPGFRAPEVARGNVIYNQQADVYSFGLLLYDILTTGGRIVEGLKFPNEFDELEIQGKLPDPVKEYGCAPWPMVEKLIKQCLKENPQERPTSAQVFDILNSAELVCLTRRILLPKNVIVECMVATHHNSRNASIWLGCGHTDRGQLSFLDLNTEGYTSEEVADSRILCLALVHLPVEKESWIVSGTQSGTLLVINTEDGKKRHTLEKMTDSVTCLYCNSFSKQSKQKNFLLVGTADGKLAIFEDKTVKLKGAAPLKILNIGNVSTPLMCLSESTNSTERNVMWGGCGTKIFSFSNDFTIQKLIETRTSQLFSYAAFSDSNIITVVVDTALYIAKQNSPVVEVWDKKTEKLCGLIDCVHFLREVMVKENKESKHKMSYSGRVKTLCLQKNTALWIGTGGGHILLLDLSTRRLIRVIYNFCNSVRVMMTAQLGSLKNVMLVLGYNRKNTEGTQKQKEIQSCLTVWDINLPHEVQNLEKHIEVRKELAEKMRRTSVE

Turning to `CC(C)Nc1c(C(N)=O)nnc2cc(CCO)ccc12` [Compound 7-198, 7-(2-hydroxyethyl)-4-(isopropylamino)cinnoline-3-carboxamide], under setting [1], the IC50 (usually the concentration at which inhibition is half-maximal) is 940 nM.
On the same count and under the same terms, under `CC(C)(C)c1ccc2nnc(C(N)=O)c(N)c2c1` [Compound 1-186, 4-amino-6-tert-butylcinnoline-3-carboxamide] stands 4000 nM.
The same measure, in the same setting: under `COc1ccc(Br)cc1-c1ccc2c(N[C@H](C)C3CC3)c(C(N)=O)nnc2c1` [Compound 2-109, (R)-7-(5-bromo-2-methoxyphenyl)-4-(1-cyclopropylethylamino)cinnoline-3-carboxamide] stands 710 nM; under `CC(C)Nc1c(C(N)=O)nnc2ccc(-c3ccc(S(C)(=O)=O)cc3)cc12` [Compound 2-125, 4-(isopropylamino)-6-(4-(methylsulfonyl)phenyl)cinnoline-3-carboxamide], 2900 nM; under `CNC(=O)c1nnc2cc(C3CC3)ccc2c1N[C@H](C)C1CC1` [Compound 14-236, (R)-7-cyclopropyl-4-(1-cyclopropylethylamino)-N-methylcinnoline-3-carboxamide], 1950 nM.
On the same count and under the same terms, under `COc1cccc(-c2ccc3c(NC(C)C)c(C(N)=O)nnc3c2)c1` [Compound 2-97, 4-(isopropylamino)-7-(3-methoxyphenyl)cinnoline-3-carboxamide] stands 46 nM; under `CC(C)Nc1c(C(N)=O)nnc2cc(Oc3ccccc3)ccc12` [Compound 4-74, 4-(isopropylamino)-7-phenoxycinnoline-3-carboxamide], 490 nM.
`CC(C)Nc1c(C(N)=O)nnc2cc(-c3ccc(N4CCOCC4)cc3)ccc12` [Compound 2-49, 4-(isopropylamino)-7-(4-morpholinophenyl)cinnoline-3-carboxamide]: the IC50 under setting [1] came out at 9 nM.
Still for that read-out and setting: under `C[C@@H](Nc1c(C(N)=O)nnc2cc(-c3cccc4c3NC(=O)C4)ccc12)C1CC1` [Compound 2-121, (R)-4-(1-cyclopropylethylamino)-7-(2-oxoindolin-7-yl)cinnoline-3-carboxamide] stands 2 nM; under `CS(=O)(=O)c1ccc(-c2ccc3c(NCC4CC4)c(C(N)=O)nnc3c2)cc1` [Compound 2-92], 17 nM.
Same read-out and setting: under `CC(C)Nc1c(-c2nccc(=O)[nH]2)nnc2cc(-c3ccc(S(C)(=O)=O)cc3)ccc12` [Compound 3-187, 2-(4-(isopropylamino)-7-(4-(methylsulfonyl)phenyl)cinnolin-3-yl)pyrimidin-4(3H)-one] stands 280 nM; under `CC(C)Nc1c(Cl)nnc2cc(-c3ccc(S(C)(=O)=O)cc3)ccc12` [Compound 3-84, 3-chloro-N-isopropyl-7-(4-(methylsulfonyl)phenyl) cinnolin-4-amine], 1600 nM.
Still for that read-out and setting: under `CCC(C)Sc1c(C(N)=O)nnc2cc(-c3ccc(S(C)(=O)=O)cc3)ccc12` (centres unmarked) [Compound 2-243, 4-(sec-butylthio)-7-(4-(methylsulfonyl)phenyl)cinnoline-3-carboxamide] stands 12000 nM.
As for `CC(C)Nc1c(C(N)=O)nnc2cc(N3CCN(C)CC3)ccc12` [Compound 4-188, 4-(isopropylamino)-7-(4-methylpiperazin-1-yl)cinnoline-3-carboxamide], the IC50 stood at 53 nM.
On to `CC(C)Nc1c(C(N)=O)nnc2ccc(-c3cncs3)cc12` [Compound 2-131, 4-(isopropylamino)-6-(thiazol-5-yl)cinnoline-3-carboxamide], for which, under setting [1], the IC50 worked out at 110 nM.
As for `C[C@@H](Nc1c(C(N)=O)nnc2cc(-c3cccc(OCC4CC4)c3)ccc12)C1CC1` [Compound 2-113, (R)-4-(1-cyclopropylethylamino)-7-(3-(cyclopropylmethoxy)phenyl)cinnoline-3-carboxamide], the IC50 under setting [1] turned out to be 51 nM.
The same measure, in the same setting: under `C[C@@H](Nc1c(C#N)nnc2cc(-c3ccc(S(C)(=O)=O)cc3)ccc12)C1CC1` [Compound 2-42, (R)-4-(1-cyclopropylethylamino)-7-(4-(methylsulfonyl)phenyl)cinnoline-3-carbonitrile] stands 560 nM; under `C[C@@H](Nc1c(C(N)=O)nnc2cc(-c3ccc(S(C)(=O)=O)cc3)ccc12)C1CCOCC1` [Compound 2-90, (R)-7-(4-(methylsulfonyl)phenyl)-4-(1-(tetrahydro-2H-pyran-4-yl)ethylamino)cinnoline-3-carboxamide], 63 nM; under `COc1ccc(N2CCOCC2=O)cc1-c1ccc2c(N[C@H](C)C3CC3)c(C(N)=O)nnc2c1` [Compound 9-209, (R)-4-(1-cyclopropylethylamino)-7-(2-methoxy-5-(3-oxomorpholino)phenyl)cinnoline-3-carboxamide], 63 nM.
Still for that read-out and setting: under `COc1cc(N2CCOC2=O)ccc1-c1ccc(OC)c(-c2ccc3c(N[C@H](C)C4CC4)c(C(N)=O)nnc3c2)c1` [Compound 9-208, (R)-4-(1-cyclopropylethylamino)-7-(2′,4-dimethoxy-4′-(2-oxooxazolidin-3-yl)biphenyl-3-yl)cinnoline-3-carboxamide] stands 1100 nM.
As for `CC(C)Nc1c(-c2ncco2)nnc2cc(-c3ccc(S(C)(=O)=O)cc3)ccc12` [Compound 3-71, N-isopropyl-7-(4-(methylsulfonyl)phenyl)-3-(oxazol-2-yl)cinnolin-4-amine], the IC50 under setting [1] is more than 100000 nM.
As to `C=C(C)c1ccc2c(NC(C)C)c(C(N)=O)nnc2c1` [Compound 2-99, 4-(isopropylamino)-7-(prop-1-en-2-yl)cinnoline-3-carboxamide], the IC50 under setting [1] amounted to 76 nM.
The same measure, in the same setting: under `C[C@@H](Nc1c(C(N)=O)nnc2cc(-c3cnn(C)c3)ccc12)C1CC1` [Compound 2-101, (R)-4-(1-cyclopropylethylamino)-7-(1-methyl-1H-pyrazol-4-yl)cinnoline-3-carboxamide] stands 1 nM; under `CN(C)c1ccc(-c2ccc3c(N)c(C(N)=O)nnc3c2)cc1` [Compound 1-7, 4-amino-7-(4-(dimethylamino)phenyl)cinnoline-3-carboxamide], 130 nM; under `CN(C)c1cccc(-c2ccc3c(N)c(C(N)=O)nnc3c2)c1` [Compound 1-8, 4-amino-7-(3-(dimethylamino)phenyl)cinnoline-3-carboxamide], 250 nM.
`CC(C)Nc1c(C(N)=O)nnc2cc(-c3cn[nH]c3)ccc12` [Compound 2-53, 4-(isopropylamino)-7-(1H-pyrazol-4-yl)cinnoline-3-carboxamide]: the IC50 under setting [1] stood at 9 nM.
Same read-out and setting: under `NC(=O)c1nnc2cc(-c3ccc(N4CCOCC4)cc3)ccc2c1N` [Compound 1-9, 4-amino-7-(4-morpholinophenyl)cinnoline-3-carboxamide] stands 29700 nM.
As to `CC(C)Nc1c(C(N)=O)nnc2cc(-c3cncnc3)ccc12` [Compound 2-33, 4-(isopropylamino)-7-(pyrimidin-5-yl)cinnoline-3-carboxamide], the IC50 under setting [1] is 210 nM.
On the same count and under the same terms, under `C=C(C)c1ccc2c(N[C@H](C)C3CC3)c(C(=O)NC)nnc2c1` [Compound 14-235, (R)-4-(1-cyclopropylethylamino)-N-methyl-7-(prop-1-en-2-yl)cinnoline-3-carboxamide] stands 1600 nM.
Still for that read-out and setting: under `CNC(=O)c1nnc2cc(-c3ccc(S(C)(=O)=O)cc3)ccc2c1NC(C)C` [Compound 12-227, 4-(Isopropylamino)-N-methyl-7-(4-(methylsulfonyl)phenyl)cinnoline-3-carboxamide] stands 410 nM.
The same measure, in the same setting: under `CC(C)Nc1c(C(N)=O)nnc2ccc(-c3cn[nH]c3)cc12` [Compound 2-127, 4-(isopropylamino)-6-(1H-pyrazol-4-yl)cinnoline-3-carboxamide] stands less than 6 nM.
As to `CS(=O)(=O)c1ccc(-c2ccc3c(NC4CCOC4)c(C(N)=O)nnc3c2)cc1` (centres unmarked) [Compound 2-23, 7-(4-(methylsulfonyl)phenyl)-4-(tetrahydrofuran-3-ylamino)cinnoline-3-carboxamide], the IC50 under setting [1] was determined as 17 nM.
Same read-out and setting: under `CC(C)Nc1c(C(N)=O)nnc2cc(Nc3ccccc3)ccc12` [Compound 4-78, 4-(isopropylamino)-7-(phenylamino)cinnoline-3-carboxamide] stands 72 nM.
For the compound `CC(C)Nc1c(C(N)=O)nnc2cc(-c3ccccc3F)ccc12` [Compound 2-47, 7-(2-fluorophenyl)-4-(isopropylamino)cinnoline-3-carboxamide], the IC50 under setting [1] came to 210 nM.
For `C[C@@H](Nc1c(C(N)=O)nnc2cc(-c3ccn(C)c(=O)c3)ccc12)C1CC1` [Compound 2-122, (R)-4-(1-cyclopropylethylamino)-7-(1-methyl-2-oxo-1,2-dihydropyridin-4-yl)cinnoline-3-carboxamide], the IC50 under setting [1] was 8 nM.
The same measure, in the same setting: under `C[C@@H](Nc1c(C(N)=O)nnc2cc(-c3ccccc3S(C)(=O)=O)ccc12)C1CC1` [Compound 2-123, (R)-4-(1-cyclopropylethylamino)-7-(2-(methylsulfonyl)phenyl)cinnoline-3-carboxamide] stands 430 nM; under `C[C@@H](Nc1c(C(N)=O)nnc2cc(-c3ccc(C(=O)N(C)C)cc3)ccc12)C1CC1` [Compound 2-114, (R)-4-(1-cyclopropylethylamino)-7-(4-(dimethylcarbamoyl)phenyl)cinnoline-3-carboxamide], 0.5 nM; under `CC(C)Nc1c(C#N)nnc2cc(-c3ccc(S(C)(=O)=O)cc3)ccc12` [Compound 2-18, 4-(isopropylamino)-7-(4-(methylsulfonyl)phenyl)cinnoline-3-carbonitrile], 620 nM.
Still for that read-out and setting: under `CS(=O)(=O)c1ccc(-c2ccc3c(NC4COC4)c(C(N)=O)nnc3c2)cc1` [Compound 2-27, 7-(4-(methylsulfonyl)phenyl)-4-(oxetan-3-ylamino)cinnoline-3-carboxamide] stands 180 nM; under `C=Cc1ccc2c(NC(C)C)c(C(N)=O)nnc2c1` [Compound 2-95, 4-(isopropylamino)-7-vinylcinnoline-3-carboxamide], 120 nM; under `CC(C)Nc1c(C(N)=O)nnc2cc(-c3cnn(C)c3)ccc12` [Compound 2-35, 4-(isopropylamino)-7-(1-methyl-1H-pyrazol-4-yl)cinnoline-3-carboxamide], 9 nM.

The values are drawn from patent publication US9884828B2, “Substituted cinnolines as inhibitors of LRRK2 kinase activity” (Imago Pharmaceuticals, Inc., priority 2011, dated 2018).
